Each structure is given as a SMILES string. Several values for one entry are separate records, joined by “and”; a condition that tells them apart may be missing. Equal entries are not always repeated. Where two headings read alike, the source gives them in different places.

Data set [1] is classed as physicochemical.
The format of data set [2] is physicochemical. Conditions: 1 w. How it is done: For each salt, approximately 5 mg compound was added into an 8 mL glass vial with a multi-hole aluminum foil cap, and kept at 60° C., 40° C./75% RH for 1 week. […] Appearance by visual observation were recorded followed by purity assessment and XPRD data collection on the residual solids.

Regarding `COCC1(O)CCC2(C)C(CCC3C2CCC2(C)C(C(=O)Cn4ccnc4)CCC32)C1.O=C(O)c1ccc2ccccc2c1O` (centres unmarked) [1-hydroxy-2-napthoate (Form A)], the Final purity was found to be 92.64 in data set [1] (1.2 million lux-hrs), 91.96 in data set [1] (Dark control), 92.64 in data set [2] (40° C./75% RH) and 88.91 in data set [2] (60° C.). The XRPD patterns entry in data set [1] (1.2 million lux-hrs), in data set [1] (Dark control), in data set [2] (40° C./75% RH) and in data set [2] (60° C.) was “Form A” each time.

Take `COCC1(O)CCC2(C)C(CCC3C2CCC2(C)C(C(=O)Cn4ccnc4)CCC32)C1.Cc1ccc(S(=O)(=O)O)cc1` (centres unmarked) [Tosylate (Form A)]: the Final purity amounted to 99.0 in data set [1] (1.2 million lux-hrs), 99.5 in data set [1] (Dark control), 99.5 in data set [2] (40° C./75% RH) and 99.5 in data set [2] (60° C.). Besides, the XRPD patterns entry in data set [1] (1.2 million lux-hrs), in data set [1] (Dark control) and in data set [2] (60° C.) was “Form A” in each case.

For `COCC1(O)CCC2(C)C(CCC3C2CCC2(C)C(C(=O)Cn4ccnc4)CCC32)C1.O=C(O)c1cc(O)ccc1O` (centres unmarked) [Gentisate salt (Form A)], the Final purity is recorded as 96.0 in data set [1] (1.2 million lux-hrs), 97.6 in data set [1] (Dark control), 97.6 in data set [2] (40° C./75% RH) and 97.0 in data set [2] (60° C.). For the same compound, the XRPD patterns entry in data set [1] (1.2 million lux-hrs), in data set [1] (Dark control), in data set [2] (40° C./75% RH) and in data set [2] (60° C.) was “Form A” in each case.

For `COCC1(O)CCC2(C)C(CCC3C2CCC2(C)C(C(=O)Cn4ccnc4)CCC32)C1.O=S(=O)(O)CCO` (centres unmarked) [Isethionate (Form A)], the Final purity is on record as 98.9 in data set [1] (1.2 million lux-hrs), 98.8 in data set [1] (Dark control), 98.5 in data set [2] (40° C./75% RH) and 98.7 in data set [2] (60° C.). In addition, the XRPD patterns result in data set [1] (1.2 million lux-hrs), in data set [1] (Dark control), in data set [2] (40° C./75% RH) and in data set [2] (60° C.) was “Form A” each time.

`COCC1(O)CCC2(C)C(CCC3C2CCC2(C)C(C(=O)Cn4ccnc4)CCC32)C1.O=C(O)CC(O)C(=O)O` [L-Malate (Form A)]: the Final purity in data set [1] (1.2 million lux-hrs) is 99.3; in data set [1] (Dark control) it was 99.3; in data set [2] (40° C./75% RH), 99.2; in data set [2] (60° C.) it was 99.6. Further, the XRPD patterns entry in data set [1] (1.2 million lux-hrs), in data set [1] (Dark control), in data set [2] (40° C./75% RH) and in data set [2] (60° C.) was “Form A” in each case.

For `COC[C@@]1(O)CC[C@@]2(C)[C@@H](CC[C@@H]3[C@@H]2CC[C@]2(C)[C@@H](C(=O)Cn4ccnc4)CC[C@@H]32)C1.O=S(=O)(O)c1ccccc1` [Besylate (Form A)], the Final purity in data set [1] (1.2 million lux-hrs) is on record as 98.7; in data set [1] (Dark control), 98.4; in data set [2] (40° C./75% RH), 98.3; in data set [2] (60° C.), 98.3. In addition, the XRPD patterns entry in data set [1] (1.2 million lux-hrs), in data set [1] (Dark control), in data set [2] (40° C./75% RH) and in data set [2] (60° C.) was “Form A” in each case.

Consider `COCC1(O)CCC2(C)C(CCC3C2CCC2(C)C(C(=O)Cn4ccnc4)CCC32)C1.Nc1ccc(C(=O)O)c(O)c1` (centres unmarked) [P-aminosalicylate (Form A)], for which the Final purity in data set [1] (1.2 million lux-hrs) amounted to 95.7; in data set [1] (Dark control), 95.8; in data set [2] (40° C./75% RH), 97.0; in data set [2] (60° C.), 91.5. In addition, the XRPD patterns entry in data set [1] (1.2 million lux-hrs), in data set [1] (Dark control), in data set [2] (40° C./75% RH) and in data set [2] (60° C.) was “Form A” in each case.

For `CCS(=O)(=O)O.COCC1(O)CCC2(C)C(CCC3C2CCC2(C)C(C(=O)Cn4ccnc4)CCC32)C1` (centres unmarked) [Ethanesulfonate (Form A)], the Final purity in data set [1] (1.2 million lux-hrs) is reported as 97.7; in data set [1] (Dark control) it was 97.4; in data set [2] (40° C./75% RH) it was 98.0; in data set [2] (60° C.) it was 98.2. Moreover, the XRPD patterns entry in data set [1] (1.2 million lux-hrs), in data set [1] (Dark control), in data set [2] (40° C./75% RH) and in data set [2] (60° C.) was “Form A” throughout.

Consider `COCC1(O)CCC2(C)C(CCC3C2CCC2(C)C(C(=O)Cn4ccnc4)CCC32)C1.O=CC(O)C(O)C(O)C(O)C(=O)O` (centres unmarked) [Glucuronate (Form A)], for which the Final purity in data set [1] (1.2 million lux-hrs) is recorded as 97.5; in data set [1] (Dark control) it was 97.5; in data set [2] (40° C./75% RH), 98.0; in data set [2] (60° C.) it was 96.7. Besides, the XRPD patterns result in data set [1] (1.2 million lux-hrs), in data set [1] (Dark control), in data set [2] (40° C./75% RH) and in data set [2] (60° C.) was “Form A” in each case.

Regarding `COC[C@@]1(O)CC[C@@]2(C)[C@@H](CC[C@@H]3[C@@H]2CC[C@]2(C)[C@@H](C(=O)Cn4ccnc4)CC[C@@H]32)C1.Cl` [Hydrochloride (Form A)], the Final purity in data set [1] (1.2 million lux-hrs) is recorded as 99.5; in data set [1] (Dark control), 99.5; in data set [2] (40° C./75% RH), 99.4; in data set [2] (60° C.), 99.5. The XRPD patterns result in data set [1] (1.2 million lux-hrs), in data set [1] (Dark control), in data set [2] (40° C./75% RH) and in data set [2] (60° C.) was “Form A” in each case.

With `COC[C@@]1(O)CC[C@@]2(C)[C@@H](CC[C@@H]3[C@@H]2CC[C@]2(C)[C@@H](C(=O)Cn4ccnc4)CC[C@@H]32)C1.O=C(O)CC(=O)O` [Malonate (Form A)], the Final purity in data set [1] (1.2 million lux-hrs) came out at 98.2; in data set [1] (Dark control), 99.0; in data set [2] (40° C./75% RH), 98.5; in data set [2] (60° C.), 97.0. In addition, the XRPD patterns result in data set [1] (1.2 million lux-hrs), in data set [1] (Dark control), in data set [2] (40° C./75% RH) and in data set [2] (60° C.) was “Form A” in each case.

Take `COC[C@@]1(O)CC[C@@]2(C)[C@@H](CC[C@@H]3[C@@H]2CC[C@]2(C)[C@@H](C(=O)Cn4ccnc4)CC[C@@H]32)C1.O=C(O)C(O)C(O)C(=O)O` [L(+)-Tartrate (Form B)]: the Final purity was 99.3 in data set [1] (1.2 million lux-hrs), 99.2 in data set [1] (Dark control), 99.2 in data set [2] (40° C./75% RH) and 99.2 in data set [2] (60° C.). Also, the XRPD patterns result in data set [1] (1.2 million lux-hrs), in data set [1] (Dark control), in data set [2] (40° C./75% RH) and in data set [2] (60° C.) was “Form B” each time.

For `COC[C@@]1(O)CC[C@@]2(C)[C@@H](CC[C@@H]3[C@@H]2CC[C@]2(C)[C@@H](C(=O)Cn4ccnc4)CC[C@@H]32)C1` [Compound 1, 3α-Hydroxy-3β-methoxymethyl-21-(1′-imidazolyl)-5α-pregnan-20-one], the Final purity is 97.9 and 99.2 and 97.92 in data set [1] (1.2 million lux-hrs); 98.3 and 99.1 in data set [1] (Dark control); 98.2 and 99.1 and 98.23 in data set [2] (40° C./75% RH); 98.2 and 99.3 and 98.15 in data set [2] (60° C.). Moreover, the XRPD pattern result in data set [1] (1.2 million lux-hrs), in data set [1] (Dark control), in data set [2] (40° C./75% RH) and in data set [2] (60° C.) was “Pattern A” throughout. Also, the XRPD patterns result in data set [1] (1.2 million lux-hrs), in data set [1] (Dark control), in data set [2] (40° C./75% RH) and in data set [2] (60° C.) was “Pattern A” throughout.

For `COCC1(O)CCC2(C)C(CCC3C2CCC2(C)C(C(=O)Cn4ccnc4)CCC32)C1.O=C(O)C(O)C(O)C(=O)O` (stereo not drawn) [L(+)-Tartrate (Form A)], the Final purity was found to be 99.4 in data set [1] (1.2 million lux-hrs), 99.2 in data set [1] (Dark control), 99.3 in data set [2] (40° C./75% RH) and 99.3 in data set [2] (60° C.). Moreover, the XRPD patterns entry in data set [1] (1.2 million lux-hrs), in data set [1] (Dark control), in data set [2] (40° C./75% RH) and in data set [2] (60° C.) was “Form A” throughout.

For `COC[C@@]1(O)CC[C@@]2(C)[C@@H](CC[C@@H]3[C@@H]2CC[C@]2(C)[C@@H](C(=O)Cn4ccnc4)CC[C@@H]32)C1.O=C1O[C@H]([C@@H](O)CO)C(O)=C1O` [Ascorbate (Form A)], the Final purity was determined as 96.8 in data set [1] (1.2 million lux-hrs), 96.8 in data set [1] (Dark control), 96.4 in data set [2] (40° C./75% RH) and 95.7 in data set [2] (60° C.). Besides, the XRPD patterns entry in data set [1] (1.2 million lux-hrs), in data set [1] (Dark control), in data set [2] (40° C./75% RH) and in data set [2] (60° C.) was “Form A” throughout.

Turning to `COCC1(O)CCC2(C)C(CCC3C2CCC2(C)C(C(=O)Cn4ccnc4)CCC32)C1.O=S(=O)(O)c1ccc2ccccc2c1` (centres unmarked) [Napsylate (Form A)], the Final purity in data set [1] (1.2 million lux-hrs) was determined as 99.0; in data set [1] (Dark control) it was 99.1; in data set [2] (40° C./75% RH), 99.1; in data set [2] (60° C.) it was 99.1. Besides, the XRPD patterns result in data set [1] (1.2 million lux-hrs), in data set [1] (Dark control), in data set [2] (40° C./75% RH) and in data set [2] (60° C.) was “Form A” in each case.

With `COCC1(O)CCC2(C)C(CCC3C2CCC2(C)C(C(=O)Cn4ccnc4)CCC32)C1.Cl` (centres unmarked) [Hydrochloride (Form B)], the Final purity was found to be 98.2 in data set [1] (1.2 million lux-hrs), 98.59 in data set [1] (Dark control), 100.0 in data set [2] (40° C./75% RH) and 100.0 in data set [2] (60° C.). Moreover, the XRPD patterns entry in data set [1] (1.2 million lux-hrs), in data set [1] (Dark control) and in data set [2] (60° C.) was “Form B” throughout.

As for `COCC1(O)CCC2(C)C(CCC3C2CCC2(C)C(C(=O)Cn4ccnc4)CCC32)C1.O=C(O)C(Cl)Cl` (centres unmarked) [Dichloroacetate (Form A)], the Final purity is reported as 96.4 in data set [1] (1.2 million lux-hrs), 97.3 in data set [1] (Dark control), 98.0 in data set [2] (40° C./75% RH) and 96.3 in data set [2] (60° C.). The XRPD patterns result in data set [1] (1.2 million lux-hrs), in data set [1] (Dark control), in data set [2] (40° C./75% RH) and in data set [2] (60° C.) was “Form A” throughout.

Values taken from US10927141B2 (priority 2018, dated 2021).
